Results on three compounds are retold here after ChEMBL document CHEMBL3872220, “Amphiphilic xanthones as a potent chemical entity of anti-mycobacterial agents with membrane-targeting properties” (Eur J Med Chem, 2016).

Each structure is given as a SMILES string. In brackets after ≈: the same amount, converted by molar mass. Activity calls are given as the source filed them. No cut-off for these calls is given here.

Data set [1] has as its system Mycobacterium tuberculosis. Briefly: Antimycobacterial activity against Mycobacterium tuberculosis clinical isolate 01;001 assessed as reduction in 2 log10 bacterial colonies measured after 14 to 21 days by agar dilution method. The class given is functional.
For data set [2], the system named is Mycobacterium tuberculosis. The experiment in a line: Antimycobacterial activity against Mycobacterium tuberculosis clinical isolate 01;111 assessed as reduction in 2 log10 bacterial colonies measured after 14 to 21 days by agar dilution method. It counts as functional.
The nature of data set [3]: Selectivity index, ratio of CC50 for human corneal fibroblasts assessed as reduction in ATP level to MIC90 for Mycobacterium bovis BCG ATCC 35734.
In data set [4] the test system is Mycobacterium tuberculosis. The experiment in a line: Antimycobacterial activity against Mycobacterium tuberculosis H37Rv ATCC 27294 assessed as reduction in 2 log10 bacterial colonies measured after 14 to 21 days by agar dilution method. The class given is functional.
Data set [5] has as its system Mycobacterium tuberculosis. The experiment in a line: Antimycobacterial activity against Mycobacterium tuberculosis clinical isolate 01;087 assessed as reduction in 2 log10 bacterial colonies measured after 14 to 21 days by agar dilution method. It counts as functional.
In data set [6] the test system is Mycolicibacterium smegmatis. Briefly: Bactericidal activity against Mycobacterium smegmatis MC2 155 assessed as log reduction in bacterial colonies at 4 times MIC measured after 24 hrs by time-kill assay. The class given is functional, str. MC2 155.
Data set [7] can be described thus: Volume of distribution in Sprague-Dawley rat at 2 mg/kg, iv administered as single bolus dose measured by LC-MS/MS method. Conditions: in vivo. It counts as ADME, organism-based.
The nature of data set [8]: Oral bioavailability in Sprague-Dawley rat at 2 mg/kg measured by LC-MS/MS method. The conditions noted are these: in vivo. The class given is ADME, organism-based.
In data set [9] the test system is Mycolicibacterium smegmatis. The experiment in a line: Bactericidal activity against Mycobacterium smegmatis MC2 155 assessed as log reduction in bacterial colonies at 3.2 uM measured after 6 hrs by time-kill assay. The class given is functional, str. MC2 155.
Data set [10] in a line: AUC (0 to infinity) in Sprague-Dawley rat at 2 mg/kg, administered via oral gavage measured by LC-MS/MS method. It counts as ADME, organism-based. Further details: dose 2 mg/kg, time infinity, route oral. The conditions noted are these: in vivo.
The test system of data set [11] is Mycolicibacterium smegmatis. Briefly: Bactericidal activity against Mycobacterium smegmatis MC2 155 measured after 2 days by time-kill assay. The class given is functional. Conditions: str. MC2 155.
Data set [12] can be described thus: Terminal half life in Sprague-Dawley rat at 2 mg/kg administered via oral gavage measured by LC-MS/MS method. It counts as ADME, organism-based. Conditions: in vivo, read-out: beta t1/2 (converted).
Data set [13] has as its system Mycolicibacterium smegmatis. The experiment in a line: Bactericidal activity against Mycobacterium smegmatis MC2 155 assessed as log reduction in bacterial colonies at 2 times MIC measured after 3 hrs by time-kill assay. The class given is functional, str. MC2 155.
The nature of data set [14]: Cmax in Sprague-Dawley rat at 2 mg/kg, iv administered as single bolus dose measured by LC-MS/MS method. Further details: dose 2 mg/kg, route intravenous. The conditions noted are these: in vivo. It counts as ADME, organism-based.
Data set [15] relates to Mycolicibacterium smegmatis. The experiment in a line: Bactericidal activity against Mycobacterium smegmatis MC2 155 assessed as log reduction in bacterial colonies at 4 times MIC measured after 3 hrs by time-kill assay. The class given is functional, str. MC2 155.
In data set [16] the test system is Mycolicibacterium smegmatis. The experiment in a line: Induction of membrane integrity impairment in Mycobacterium smegmatis MC2 155 at 2 times MIC by SYTO-9/propium iodide staining based Baclight assay relative to control. The class given is functional, str. MC2 155.
Data set [17] is described as follows: Terminal half life in Sprague-Dawley rat at 2 mg/kg, iv administered as single bolus dose measured by LC-MS/MS method. It counts as ADME, organism-based. Conditions: in vivo, read-out: beta t1/2 (converted).
Data set [18] has as its system Mycolicibacterium smegmatis. Briefly: Induction of impaired membrane integrity in Mycobacterium smegmatis MC2 155 assessed as reduction in membrane integrity at MIC by SYTO-9/propium iodide stain based Baclight assay relative to control. The class given is functional, str. MC2 155. More on the design: scale not given: the % may be the effect or the level left.
Data set [19] is described as follows: Cmax in Sprague-Dawley rat at 2 mg/kg administered via oral gavage measured by LC-MS/MS method. It counts as ADME, organism-based. Further details: dose 2 mg/kg, route oral. The conditions noted are these: in vivo.
Data set [20] deals with Lipid bilayer. The experiment in a line: Induction of membrane damage in CI/DOPG/DOPI large unilamellar vesicles assessed as calcein leakage at 1:2 compound to lipid ratio by fluorescence based […] assay relative to control.
Data set [21] is described as follows: Tmax in Sprague-Dawley rat at 2 mg/kg administered via oral gavage measured by LC-MS/MS method. The class given is ADME, organism-based. The conditions noted are these: in vivo.
The test system of data set [22] is Lipid bilayer. The experiment in a line: Induction of membrane damage in CI/DOPG/DOPI large unilamellar vesicles assessed as calcein leakage at lower compound to lipid ratio by fluorescence based […] assay relative to control.
Data set [23] can be described thus: AUC (0 to infinity) in Sprague-Dawley rat at 2 mg/kg, iv administered as single bolus dose measured by LC-MS/MS method. Conditions: in vivo. Further details: dose 2 mg/kg, route intravenous, time infinity. It counts as ADME, organism-based.
The test system of data set [24] is Mycolicibacterium smegmatis. The experiment in a line: Bactericidal activity against Mycobacterium smegmatis MC2 155 assessed as log reduction in bacterial colonies at 2 times MIC measured after 6 hrs by time-kill assay. The class given is functional, str. MC2 155.
A short description of data set [25]: Clearance in Sprague-Dawley rat at 2 mg/kg, iv administered as single bolus dose measured by LC-MS/MS method. The conditions noted are these: in vivo. The class given is ADME, organism-based.
Data set [26] deals with Lipid bilayer. Briefly: Induction of membrane damage in CI/DOPG/DOPI large unilamellar vesicles assessed as calcein leakage at 1:4 compound to lipid ratio by fluorescence based […] assay relative to control.
The subject of data set [27] is Lipid bilayer. Briefly: Induction of membrane damage in CI/DOPG/DOPI large unilamellar vesicles assessed as calcein leakage at 1:8 compound to lipid ratio by fluorescence based […] assay relative to control.
Data set [28] deals with Mycolicibacterium smegmatis. The experiment in a line: Induction of membrane disruption in Mycobacterium smegmatis MC2 155 assessed as increased cytoplasmic membrane permeability at 60 uM up to 3 hrs by Sytox green uptake assay. The class given is functional. The conditions noted are these: str. MC2 155.

In the case of `COc1c(OCCCCN2CCOCC2)cc2oc3cc(OCCCCN4CCOCC4)c(CC=C(C)C)c(O)c3c(=O)c2c1CC=C(C)C`, the MIC was 4 µg/mL (≈ 5.77 µM) in [1], 4 µg/mL (≈ 5.77 µM) in [2], 4 µg/mL (≈ 5.77 µM) in data set [4] and 8 µg/mL (≈ 11.5 µM) in [5]. In addition, in data set [3], the “Selectivity Index” value was 15 - 40. In data set [6], the Activity was 2.4.

`CCCN(CCC)CCCCOc1cc2oc3cc(OCCCCN(CCC)CCC)c(OC)c(CC=C(C)C)c3c(=O)c2c(O)c1CC=C(C)C` registered a Vd in data set [7] of 1.28 L/kg. The bioavailability in data set [8] was in the range of 14 to 15%. Also, the Activity was 1.6 in [9]; “Dose-dependent effect” in [11]; 2.85 in data set [13]; 4.15 in data set [15]; 78.8% in data set [16]; 28% in data set [18]. Further, the Activity in the data set with Lipid bilayer [20] was 13.3%; in the data set with Lipid bilayer [22], < 10%; in data set [24], 4.15. Also, the AUC(0-inf) in data set [10] turned out to be 3300 ng·h/mL. Also, the half-life in data set [12] was 287 min; in data set [17] it was 596 min. Moreover, the “Selectivity Index” value in data set [3] is 15 - 40. Moreover, the values for the Cmax in data set [14] and in data set [19] were 1500 ng/mL and 320 ng/mL, respectively. In data set [21], the Tmax was found to be 4 h. Besides, the AUC in [23] is 22.78 µg·h/mL. In addition, the CL in data set [25] is 1.48 L/h/kg.

For the compound `CCN(CC)CCCCOc1cc2oc3cc(OCCCCN(CC)CC)c(OC)c(CC=C(C)C)c3c(=O)c2c(O)c1CC=C(C)C`, the Activity was 23.4% with Lipid bilayer [26], 14.6% with Lipid bilayer [27] and 47% with Lipid bilayer [20]. Further, the MIC in [1] amounted to 4 µg/mL (≈ 6.02 µM); in data set [2], 4 µg/mL (≈ 6.02 µM); in data set [4], 2 µg/mL (≈ 3.01 µM); in data set [5], 8 µg/mL (≈ 12 µM). In addition, the result in [28] was Active.
